Test results reported in ChEMBL document CHEMBL4715810, “Treatment of Metabolic Disorders with CB-1 Receptor Inverse Agonists” (ACS Med Chem Lett, 2016).

Columns and labels:
Cannabinoid receptor 2 = Cannabinoid receptor 2 (Homo sapiens, UniProt P34972); experiment: Inverse agonist activity at human CB2 receptor expressed in HEK293 cells assessed as forskolin-stimulated cAMP accumulation measured after 30 mins by HTRF assay; format: functional, cell-based
Cannabinoid receptor 1 = Cannabinoid receptor 1 (Homo sapiens, UniProt P21554); experiment: Inverse agonist activity at human CB1 receptor expressed in HEK293 cells assessed as forskolin-stimulated cAMP accumulation measured after 30 mins by HTRF assay; format: functional, cell-based
Sequence of Cannabinoid receptor 1 (P21554 whole entry): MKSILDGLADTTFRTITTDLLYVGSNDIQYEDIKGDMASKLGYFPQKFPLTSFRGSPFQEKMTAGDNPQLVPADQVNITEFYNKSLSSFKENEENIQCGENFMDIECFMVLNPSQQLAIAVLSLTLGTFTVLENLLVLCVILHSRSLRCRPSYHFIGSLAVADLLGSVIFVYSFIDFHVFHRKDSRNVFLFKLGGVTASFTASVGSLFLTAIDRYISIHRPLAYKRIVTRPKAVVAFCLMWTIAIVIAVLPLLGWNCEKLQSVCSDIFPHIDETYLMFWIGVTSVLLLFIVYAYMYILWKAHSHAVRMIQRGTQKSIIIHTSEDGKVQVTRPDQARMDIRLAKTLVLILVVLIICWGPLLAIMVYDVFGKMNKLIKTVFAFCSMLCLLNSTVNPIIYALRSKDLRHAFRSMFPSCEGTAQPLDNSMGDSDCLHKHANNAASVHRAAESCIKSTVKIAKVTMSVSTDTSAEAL

Sequence of Cannabinoid receptor 2 (P34972 whole entry): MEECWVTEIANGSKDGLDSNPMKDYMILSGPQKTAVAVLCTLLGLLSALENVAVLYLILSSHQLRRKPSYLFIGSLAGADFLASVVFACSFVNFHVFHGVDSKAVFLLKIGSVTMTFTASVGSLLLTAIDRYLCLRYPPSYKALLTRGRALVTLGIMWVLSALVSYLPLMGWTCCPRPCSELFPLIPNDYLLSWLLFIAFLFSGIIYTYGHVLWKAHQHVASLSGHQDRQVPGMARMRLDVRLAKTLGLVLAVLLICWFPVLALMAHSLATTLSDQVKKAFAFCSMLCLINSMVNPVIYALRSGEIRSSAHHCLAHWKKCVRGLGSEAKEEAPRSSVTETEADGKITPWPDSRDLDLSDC

| EC50 (Cannabinoid receptor 2) [µM] | EC50 (Cannabinoid receptor 1) [µM] | Compound |
| --- | --- | --- |
| > 10 | – | O=S(=O)(N1CCC(Nc2cnnc3ccc(C(O)(c4ccc(Cl)cc4)c4ccc(Cl)cc4)cc23)CC1)C(F)(F)F |
| > 10 | 0.099 | Clc1ccc(C(c2ccc(Cl)cc2)c2ccc3nncc(NC4CCC(Nc5ccccc5)CC4)c3c2)cc1 (centres undefined) |
| > 10 | – | O=C(O)c1ccccc1S(=O)(=O)N1CCC(Nc2cnnc3ccc(C(c4ccc(Cl)cc4)c4ccc(Cl)cc4)cc23)CC1 |
